Results reported in article PMC4727778, “Synthesis and Antifungal Evaluation of Novel N-Alkyl Tetra- and Perhydroquinoline Derivatives” (Scientia Pharmaceutica, 2014).
≈ marks a conversion by molar mass, not a printed value. Structures can show the parent of a compound that is named as a salt.

Assays:
[1] = tested on: human leukemia cell line (HL 60); assay: MTT test (cytotoxicity); format: cell-based; details: HL 60 cell line, arithmetic average of three determinations
Method: The cytotoxicity of the compounds 3a–d, 5a–d, and 8b was determined in an MTT test against a human leukemia cell line (HL 60).

[2] = tested on: Yarrowia lipolytica; assay: Microdilution assay (MIC); format: cell-based; details: hydrochlorides used, arithmetic average of two determinations, read-out: Minimal inhibitory concentration (MIC)
Method: (§1) For comparison, the N-undecylperhydroisoquinoline (C) was also tested here. For solubility reasons, the hydrochlorides were used in this assay (Table 2).

[3] = tested on: Saccharomyces cerevisiae; assay: Microdilution assay (MIC); format: cell-based; details: hydrochlorides used, arithmetic average of two determinations, read-out: Minimal inhibitory concentration (MIC)
Method: as §1

[4] = tested on: Candida glabrata; assay: Microdilution assay (MIC); format: cell-based; details: Nakaseomyces glabratus, hydrochlorides used, arithmetic average of two determinations, read-out: Minimal inhibitory concentration (MIC)
Method: as §1

[5] = tested on: Hyphopichia burtonii (DSMZ-Nr. 70663); assay: Agar diffusion assay; format: cell-based; details: H. burtonii, GI = growth inhibition, read-out: diameter of zones of total inhibition
Method: (§2) The resulting compounds and known compounds, 1-undecylpiperidine (7) and 1-decylpiperazine (8a), as well as 1-methyl-4-undecylpiperazine (8b) (prepared in the same way), were tested in an agar diffusion assay against Gram-positive (Staphylococcus equorum (DSMZ-Nr. 20675), Streptococcus entericus (DSZM-Nr. 14446)) and Gram-negative bacteria (Escherichia coli (DSMZ-Nr. 426), Pseudomonas marginalis (DSMZ-Nr. 7527)), as well as the fungi Yarrowia lipolytica (DSMZ-Nr. 1345), Candida glabrata (DSMZ-Nr.11226), Aspergillus niger (DSMZ-Nr. 1988), and Hyphopichia burtonii (DSMZ-Nr. 70663) (Table 1).

[6] = tested on: Pseudomonas marginalis (DSMZ-Nr. 7527); assay: Agar diffusion assay; format: cell-based; details: P. marginalis, GI = growth inhibition, read-out: diameter of zones of total inhibition
Method: as §2

[7] = tested on: Escherichia coli (DSMZ-Nr. 426); assay: Agar diffusion assay; format: cell-based; details: E. coli, GI = growth inhibition, read-out: diameter of zones of total inhibition
Method: as §2

[8] = tested on: Aspergillus niger (DSMZ-Nr. 1988); assay: Agar diffusion assay; format: cell-based; details: A. niger, GI = growth inhibition, read-out: diameter of zones of total inhibition
Method: as §2

[9] = tested on: Yarrowia lipolytica (DSMZ-Nr. 1345); assay: Agar diffusion assay; format: cell-based; details: Y. lipolytica, GI = growth inhibition, read-out: diameter of zones of total inhibition
Method: as §2

[10] = tested on: Staphylococcus equorum (DSMZ-Nr. 20675); assay: Agar diffusion assay; format: cell-based; details: read-out: diameter of zones of total inhibition
Method: as §2

[11] = tested on: Candida glabrata (DSMZ-Nr.11226); assay: Agar diffusion assay; format: cell-based; details: Nakaseomyces glabratus, C. glabrata, GI = growth inhibition, read-out: diameter of zones of total inhibition
Method: as §2

[12] = tested on: Streptococcus entericus (DSZM-Nr. 14446); assay: Agar diffusion assay; format: cell-based; details: S. entericus, GI = growth inhibition, read-out: diameter of zones of total inhibition
Method: as §2

Row | Structure (SMILES) | melting point | IC50 [1] | MIC [2] | MIC [3] | MIC [4] | zone of inhibition at 50 µg/disc [5] | zone of inhibition at 50 µg/disc [6] | zone of inhibition at 50 µg/disc [7] | zone of inhibition at 50 µg/disc [8] | zone of inhibition at 50 µg/disc [9] | zone of inhibition at 50 µg/disc [10] | zone of inhibition at 50 µg/disc [11] | zone of inhibition at 50 µg/disc [12]
1 | CCCCCCCCCN1CCC[C@@H]2CCCC[C@H]21 (racemic) (as salt: hydrochloride) [Compound 5a, (±)-trans-1-Nonyldecahydroquinoline hydrochloride] | 130 °C | – | – | – | – | – | – | – | – | – | – | – | –
2 | CCCCCCCCCCCCN1CCC[C@@H]2CCCC[C@H]21 (racemic) (as salt: hydrochloride) [Compound 5d, (±)-trans-1-Dodecyldecahydroquinoline hydrochloride] | 113 °C | – | – | – | – | – | – | – | – | – | – | – | –
3 | CCCCCCCCCCN1CCCc2ccccc21.Cl [Compound 3b, 1-Decyl-1,2,3,4-tetrahydroquinoline hydrochloride] | 61 °C | 60 µM | – | – | – | – | – | – | – | – | – | – | –
4 | CCCCCCCCCN1CCCc2ccccc21.Cl [Compound 3a, 1-Nonyl-1,2,3,4-tetrahydroquinoline hydrochloride] | 65 °C | 19 µM | – | – | – | – | – | – | – | – | – | – | –
5 | CCCCCCCCCCN1CCNCC1 [Compound 8a, 1-decylpiperazine, reference compound] | – | – | 10 µg/mL (≈ 44.2 µM) | 5 µg/mL (≈ 22.1 µM) | 45 µg/mL (≈ 199 µM) | 25 mm | 8 mm | 7 mm | 20 mm | 22 mm | 13 mm | 8 mm | 17 mm
6 | CCCCCCCCCCCCN1CCC[C@@H]2CCCC[C@H]21 (racemic) [Compound 5d, (±)-trans-1-Dodecyldecahydroquinoline hydrochloride] | – | 6 µM | 2.5 µg/mL | 2.5 µg/mL | 5 µg/mL | – | – | – | – | – | – | – | –
7 | CCCCCCCCCCCN1CCN(C)CC1 [Compound 8b, 1-methyl-4-undecylpiperazine, reference compound] | – | 46 µM | 10 µg/mL (≈ 39.3 µM) | 50 µg/mL (≈ 196 µM) | 25 µg/mL (≈ 98.2 µM) | 14 mm | 15 mm | 10 mm | 12 mm | 25 mm | 18 mm | 11 mm | 15 mm
8 | CN(C)[C@@H]1C(O)=C(C(N)=O)C(=O)[C@@]2(O)C(O)=C3C(=O)c4c(O)cccc4[C@@](C)(O)[C@H]3C[C@@H]12 [tetracycline, reference compound] | – | – | – | – | – | 0 mm | 12 mm | 26 mm | 0 mm | 0 mm | 30 mm | 0 mm | 10 mm
9 | CCCCCCCCCCN1CCCc2ccccc21 [Compound 2b, 1-Decyl-1,2,3,4-tetrahydroquinoline] | – | – | – | – | – | 0 mm | 0 mm | 0 mm | 0 mm | 0 mm | 0 mm | 0 mm | 0 mm
10 | CCCCCCCCCCCN1CCC[C@@H]2CCCC[C@H]21 (racemic) [Compound 4c, (±)-trans-1-Undecyldecahydroquinoline] | – | – | – | – | – | 13 mm | 11 mm | 0 mm | 14 mm | 13 mm | 12 mm | 13 mm | 20 mm
11 | CCCCCCCCCCCN1CCCc2ccccc21 [Compound 2c, 1-Undecyl-1,2,3,4-tetrahydroquinoline] | – | – | – | – | – | 0 mm | 0 mm | 0 mm | 0 mm | 0 mm | 0 mm | 0 mm | 0 mm
12 | CCCCCCCCCCCN1CCC[C@@H]2CCCC[C@H]21 (racemic) (as salt: hydrochloride) [Compound 5c, (±)-trans-1-Undecyldecahydroquinoline hydrochloride] | 119 °C | – | – | – | – | – | – | – | – | – | – | – | –
13 | CCCCCCCCCN1CCC[C@@H]2CCCC[C@H]21 (racemic) [Compound 5a, (±)-trans-1-Nonyldecahydroquinoline hydrochloride] | – | 22 µM | 7.5 µg/mL | 2.5 µg/mL | 50 µg/mL | – | – | – | – | – | – | – | –
14 | CN(C/C=C/C#CC(C)(C)C)Cc1cccc2ccccc12 [terbinafine, reference compound] | – | – | – | – | – | 15 mm | – | – | 26 mm | 12 mm | – | 0 mm | –
15 | CCCCCCCCCCN1CCC[C@@H]2CCCC[C@H]21 (racemic) [Compound 4b, (±)-trans-1-Decyldecahydroquinoline] | – | – | – | – | – | 20 mm | 15 mm | 0 mm | 12 mm | 19 mm | 13 mm | 16 mm | 22 mm
16 | CCCCCCCCCCCCN1CCCc2ccccc21.Cl [Compound 3d, 1-Dodecyl-1,2,3,4-tetrahydroquinoline hydrochloride] | 49 °C | 15 µM | – | – | – | – | – | – | – | – | – | – | –
17 | CCCCCCCCCCCCN1CCCc2ccccc21 [Compound 2d, 1-Dodecyl-1,2,3,4-tetrahydroquinoline] | – | – | – | – | – | 0 mm | 0 mm | 0 mm | 0 mm | 0 mm | 0 mm | 0 mm | 0 mm
18 | CCCCCCCCCN1CCC[C@@H]2CCCC[C@H]21 (racemic) [Compound 4a, (±)-trans-1-Nonyldecahydroquinoline] | – | – | – | – | – | 12 mm | 13 mm | 0 mm | 7 mm | 15 mm | 10 mm | 14 mm | 20 mm
19 | CCCCCCCCCCCC(=O)N1CCCc2ccccc21 [Compound 6, N-Dodecanoyl-1,2,3,4-tetrahydroquinoline] | 37 °C | – | – | – | – | 0 mm | 0 mm | 0 mm | 0 mm | 0 mm | 0 mm | 0 mm | 0 mm
20 | CCCCCCCCCCCN1CCCc2ccccc21.Cl [Compound 3c, 1-Undecyl-1,2,3,4-tetrahydroquinoline hydrochloride] | 52 °C | 16 µM | – | – | – | – | – | – | – | – | – | – | –
21 | CCCCCCCCCCN1CCC[C@@H]2CCCC[C@H]21 (racemic) (as salt: hydrochloride) [Compound 5b, (±)-trans-1-Decyldecahydroquinoline hydrochloride] | 128 °C | – | – | – | – | – | – | – | – | – | – | – | –
22 | CCCCCCCCCCN1CCC[C@@H]2CCCC[C@H]21 (racemic) [Compound 5b, (±)-trans-1-Decyldecahydroquinoline hydrochloride] | – | 7 µM | 2.5 µg/mL | 1 µg/mL | 37.5 µg/mL | – | – | – | – | – | – | – | –
23 | CCCCCCCCCCCCN1CCC[C@@H]2CCCC[C@H]21 (racemic) [Compound 4d, (±)-trans-1-Dodecyldecahydroquinoline] | – | – | – | – | – | 11 mm | 14 mm | 0 mm | – | 9 mm | 9 mm | 9 mm | 12 mm
24 | CCCCCCCCCN1CCCc2ccccc21 [Compound 2a, 1-Nonyl-1,2,3,4-tetrahydroquinoline] | – | – | – | – | – | 0 mm | 0 mm | 0 mm | 0 mm | 0 mm | 0 mm | 0 mm | 0 mm
